Measurements taken from US20220331303A1, “USE OF AN OREXIN 2 RECEPTOR AGONIST FOR THE TREATMENT OF EXCESSIVE SLEEPINESS” (Takeda Pharmaceutical Company Limited, priority 2019, published 2022).
“Also recorded” adds a separate entry of the source. Where two headings read alike, the source gives them in different places.

Experiment: Plasma PK of Compound A after a single 9-hour IV infusion in sleep-deprived healthy male subjects
Type: in vivo, human
Details: for concentration at 3 h: 3 h post infusion end
Description: This was a phase 1b, single-center, randomized, double-blind, double-dummy, placebo- and active-controlled, 4-period Williams design crossover study to evaluate the PK, PD, and safety of Compound A in sleep-deprived healthy volunteers. Compound A was administered as a 9-hour IV infusion.
Healthy adult male subjects aged 18 to 40 years, inclusive, who satisfied the inclusion and exclusion criteria were enrolled in the trial. On Day 1 of treatment period 1, eligible subjects were equally randomized to 4 treatment sequence groups (sequence 1 to 4) which defined the order of administration for Compound A LD, Compound A HD (both delivered as a 9-hour IV infusion), modafinil 300 mg, and placebo.
During the day before dosing on Day 1, participants were administered the KSS at scheduled timepoints. A practice MWT session was performed on Day 1 treatment period 1 (only once during the entire study) to familiarize subjects with the procedures. Study drug was administered in the clinic in the evening on Day 1 of each treatment period. Subjects underwent the MWT and KSS at specified timepoints after the start of the infusion. Subjects were required to stay awake between the MWT tests. Following completion of the IV infusion on Day 2, subjects underwent an additional MWT test. When the final MWT test and cognitive testing were completed, subjects were allowed to sleep (recovery sleep) for approximately 6 hours. PSG recording was collected during this time. Subjects were discharged from the unit after completion on Day 2 with continuing actigraphy upon discharge (to begin on Day −6 before the next treatment period). The interval between each subsequent treatment period was at least 7 days to ensure that the subject's circadian rhythm had returned to a normal cycle. Subject's vital signs, including BP, were monitored during the dosing and testing period. Blood samples for determination of Compound A plasma concentrations were collected at specified timepoints on Days 1 and 2 of each treatment period. Subjects completed the Columbia-Suicide Severity Rating Scale (C-SSRS) during screening, before study drug administration, and before discharge on Day 2 of each treatment period.
Plasma concentrations were tabulated, and descriptive statistics were calculated for each Compound A dose level and are listed in Tables 3-6 for Compound A. The mean plasma concentration versus time plots for Compound A are shown in FIG. 1.

[1] = 2.55-fold increase in dose (44 to 112 mg)

COC(=O)N1CCC[C@H](NS(C)(=O)=O)[C@@H]1CO[C@H]1CC[C@@H](c2ccccc2)CC1 [Compound A, methyl (2R,3S)-3-((methylsulfonyl)amino)-2-(((cis-4-phenylcyclohexyl)oxy)methyl)piperidine-1-carboxylate]
Fold increase in AUClast [1]: 2.45 fold
Fold increase in AUC∞ [1]: 2.46 fold
Fold increase in Ceoi [1]: 2.45 fold
Fold increase in Cmax [1]: 2.52 fold
Dose proportionality of systemic exposure (between 44 and 112 mg dose levels): approximately dose-proportionately; also recorded: approximately dose proportionately
Mean plasma concentration as share of the observed maximum concentration (by 4 hours after start of infusion, 44 mg and 112 mg): more than 80%
concentration at 1 h (male, human, plasma, iv, 44 mg, 44 mg 9-h IV infusion, 1 h post infusion start, read-out: Plasma concentration (GM)): 63.1 ng/mL
concentration at 1 h (male, human, plasma, iv, 44 mg, 44 mg 9-h IV infusion, 1 h post infusion start, read-out: Plasma concentration (Mean)): 64.4 ng/mL
concentration at 1 h (male, human, plasma, iv, 44 mg, 44 mg 9-h IV infusion, 1 h post infusion start, read-out: Plasma concentration (Median)): 65.5 ng/mL
concentration at 2 h (male, human, plasma, iv, 44 mg, 44 mg 9-h IV infusion, 2 h post infusion start, read-out: Plasma concentration (GM)): 72.9 ng/mL
concentration at 2 h (male, human, plasma, iv, 44 mg, 44 mg 9-h IV infusion, 2 h post infusion start, read-out: Plasma concentration (Mean)): 74 ng/mL
concentration at 2 h (male, human, plasma, iv, 44 mg, 44 mg 9-h IV infusion, 2 h post infusion start, read-out: Plasma concentration (Median)): 72.6 ng/mL
concentration at 4 h (male, human, plasma, iv, 44 mg, 44 mg 9-h IV infusion, 4 h post infusion start, read-out: Plasma concentration (GM)): 88.3 ng/mL
concentration at 4 h (male, human, plasma, iv, 44 mg, 44 mg 9-h IV infusion, 4 h post infusion start, read-out: Plasma concentration (Mean)): 89.3 ng/mL
concentration at 4 h (male, human, plasma, iv, 44 mg, 44 mg 9-h IV infusion, 4 h post infusion start, read-out: Plasma concentration (Median)): 88.2 ng/mL
concentration at 6 h (male, human, plasma, iv, 44 mg, 44 mg 9-h IV infusion, 6 h post infusion start, read-out: Plasma concentration (GM)): 97.8 ng/mL
concentration at 6 h (male, human, plasma, iv, 44 mg, 44 mg 9-h IV infusion, 6 h post infusion start, read-out: Plasma concentration (Mean)): 98.7 ng/mL
concentration at 6 h (male, human, plasma, iv, 44 mg, 44 mg 9-h IV infusion, 6 h post infusion start, read-out: Plasma concentration (Median)): 97.4 ng/mL
concentration at 9 h (male, human, plasma, iv, 44 mg, 44 mg 9-h IV infusion, 9 h post infusion start, read-out: Plasma concentration (GM)): 102 ng/mL
concentration at 9 h (male, human, plasma, iv, 44 mg, 44 mg 9-h IV infusion, 9 h post infusion start, read-out: Plasma concentration (Mean)): 103 ng/mL
concentration at 9 h (male, human, plasma, iv, 44 mg, 44 mg 9-h IV infusion, 9 h post infusion start, read-out: Plasma concentration (Median)): 101 ng/mL
AUC(0-t) (male, human, plasma, iv, 44 mg, 44 mg [LD] single 9-hour IV infusion, read-out: AUClast (GM)): 933 ng·h/mL
AUC(0-t) (male, human, plasma, iv, 44 mg, 44 mg [LD] single 9-hour IV infusion, read-out: AUClast (Mean)): 940 ng·h/mL
AUC(0-t) (male, human, plasma, iv, 44 mg, 44 mg [LD] single 9-hour IV infusion, read-out: AUClast (Median)): 888 ng·h/mL
AUC(0-inf) (male, human, plasma, iv, 44 mg, 44 mg [LD] single 9-hour IV infusion, read-out: AUC∞ (GM)): 955 ng·h/mL
AUC(0-inf) (male, human, plasma, iv, 44 mg, 44 mg [LD] single 9-hour IV infusion, read-out: AUC∞ (Mean)): 964 ng·h/mL
AUC(0-inf) (male, human, plasma, iv, 44 mg, 44 mg [LD] single 9-hour IV infusion, read-out: AUC∞ (Median)): 911 ng·h/mL
clearance (male, human, plasma, iv, 44 mg, 44 mg [LD] single 9-hour IV infusion, read-out: CL (Mean) (converted)): 773 mL/min
clearance (male, human, plasma, iv, 44 mg, 44 mg [LD] single 9-hour IV infusion, read-out: CL (Median) (converted)): 805 mL/min
Cmax (male, human, plasma, iv, 44 mg, 44 mg [LD] single 9-hour IV infusion, read-out: Cmax (GM)): 106 ng/mL
Cmax (male, human, plasma, iv, 44 mg, 44 mg [LD] single 9-hour IV infusion, read-out: Cmax (Mean)): 106 ng/mL
Cmax (male, human, plasma, iv, 44 mg, 44 mg [LD] single 9-hour IV infusion, read-out: Cmax (Median)): 102 ng/mL
Vd (male, human, plasma, iv, 44 mg, 44 mg [LD] single 9-hour IV infusion, read-out: Vss (Mean)): 107 L
Vd (male, human, plasma, iv, 44 mg, 44 mg [LD] single 9-hour IV infusion, read-out: Vss (Median)): 99.2 L
Vd (male, human, plasma, iv, 44 mg, 44 mg [LD] single 9-hour IV infusion, read-out: Vz (Mean)): 207 L
Vd (male, human, plasma, iv, 44 mg, 44 mg [LD] single 9-hour IV infusion, read-out: Vz (Median)): 211 L
Tmax (male, human, plasma, iv, 44 mg, 44 mg [LD] single 9-hour IV infusion, read-out: tmax (Mean)): 8.15 h
Tmax (male, human, plasma, iv, 44 mg, 44 mg [LD] single 9-hour IV infusion, read-out: tmax (Median)): 9 h
concentration at 0.17 h (male, human, plasma, iv, 112 mg, 112 mg 9-h IV infusion, 0.17 h post infusion end, read-out: Plasma concentration (GM)): 194 ng/mL
concentration at 0.5 h (male, human, plasma, iv, 112 mg, 112 mg 9-h IV infusion, 0.5 h post infusion end, read-out: Plasma concentration (GM)): 122 ng/mL
concentration at 1 h (male, human, plasma, iv, 112 mg, 112 mg 9-h IV infusion, 1 h post infusion end, read-out: Plasma concentration (GM)): 97.5 ng/mL
concentration at 2 h (male, human, plasma, iv, 112 mg, 112 mg 9-h IV infusion, 2 h post infusion end, read-out: Plasma concentration (GM)): 56.7 ng/mL
concentration at 3 h (male, human, plasma, iv, 112 mg, 112 mg 9-h IV infusion, read-out: Plasma concentration (GM)): 50.8 ng/mL
concentration at 3 h (male, human, plasma, iv, 112 mg, 112 mg 9-h IV infusion, read-out: Plasma concentration (Median)): 54 ng/mL
concentration at 4 h (male, human, plasma, iv, 112 mg, 112 mg 9-h IV infusion, 4 h post infusion end, read-out: Plasma concentration (GM)): 40.4 ng/mL
concentration at 4 h (male, human, plasma, iv, 112 mg, 112 mg 9-h IV infusion, 4 h post infusion end, read-out: Plasma concentration (Median)): 44.7 ng/mL
concentration at 6 h (male, human, plasma, iv, 112 mg, 112 mg 9-h IV infusion, 6 h post infusion end, read-out: Plasma concentration (GM)): 23.6 ng/mL
concentration at 6 h (male, human, plasma, iv, 112 mg, 112 mg 9-h IV infusion, 6 h post infusion end, read-out: Plasma concentration (Median)): 23.4 ng/mL
concentration at 9 h (male, human, plasma, iv, 112 mg, 112 mg 9-h IV infusion, 9 h post infusion end, read-out: Plasma concentration (GM)): 13 ng/mL
concentration at 9 h (male, human, plasma, iv, 112 mg, 112 mg 9-h IV infusion, 9 h post infusion end, read-out: Plasma concentration (Median)): 11.9 ng/mL
AUC(0-t) (male, human, plasma, iv, 112 mg, 112 mg [HD] single 9-hour IV infusion, read-out: AUClast (GM)): 2300 ng·h/mL
AUC(0-t) (male, human, plasma, iv, 112 mg, 112 mg [HD] single 9-hour IV infusion, read-out: AUClast (Mean)): 2300 ng·h/mL
AUC(0-t) (male, human, plasma, iv, 112 mg, 112 mg [HD] single 9-hour IV infusion, read-out: AUClast (Median)): 2300 ng·h/mL
AUC(0-inf) (male, human, plasma, iv, 112 mg, 112 mg [HD] single 9-hour IV infusion, read-out: AUC∞ (GM)): 2360 ng·h/mL
AUC(0-inf) (male, human, plasma, iv, 112 mg, 112 mg [HD] single 9-hour IV infusion, read-out: AUC∞ (Mean)): 2370 ng·h/mL
AUC(0-inf) (male, human, plasma, iv, 112 mg, 112 mg [HD] single 9-hour IV infusion, read-out: AUC∞ (Median)): 2380 ng·h/mL
clearance (male, human, plasma, iv, 112 mg, 112 mg [HD] single 9-hour IV infusion, read-out: CL (Mean) (converted)): 793 mL/min
clearance (male, human, plasma, iv, 112 mg, 112 mg [HD] single 9-hour IV infusion, read-out: CL (Median) (converted)): 785 mL/min
Cmax (male, human, plasma, iv, 112 mg, 112 mg [HD] single 9-hour IV infusion, read-out: Cmax (GM)): 266 ng/mL
Cmax (male, human, plasma, iv, 112 mg, 112 mg [HD] single 9-hour IV infusion, read-out: Cmax (Mean)): 268 ng/mL
Cmax (male, human, plasma, iv, 112 mg, 112 mg [HD] single 9-hour IV infusion, read-out: Cmax (Median)): 260 ng/mL
Vd (male, human, plasma, iv, 112 mg, 112 mg [HD] single 9-hour IV infusion, read-out: Vss (Mean)): 112 L
Vd (male, human, plasma, iv, 112 mg, 112 mg [HD] single 9-hour IV infusion, read-out: Vss (Median)): 112 L
Vd (male, human, plasma, iv, 112 mg, 112 mg [HD] single 9-hour IV infusion, read-out: Vz (Mean)): 223 L
Vd (male, human, plasma, iv, 112 mg, 112 mg [HD] single 9-hour IV infusion, read-out: Vz (Median)): 216 L
Tmax (male, human, plasma, iv, 112 mg, 112 mg [HD] single 9-hour IV infusion, read-out: tmax (Mean)): 7.88 h
Tmax (male, human, plasma, iv, 112 mg, 112 mg [HD] single 9-hour IV infusion, read-out: tmax (Median)): 9 h
half-life (male, human, plasma, after end of 9-h IV infusion, biphasic decline, read-out: Mean terminal half-life (t1/2z) (converted)): ~3 h
